Data set [1] deals with Rattus norvegicus. Kind of data set: Distribution of tissue Radioactivity following Intravenous injection into castrated male rat prostate/blood. Type of data set: ADME, organism-based. The note with it: other tissue.
For data set [2], the system named is Rattus norvegicus. Kind of data set: Distribution of tissue Radioactivity following Intravenous injection into castrated male rat and 5-alpha-DHT was reported. The note with it: in vivo. Type of data set: ADME, organism-based.
For data set [3], the target named is T1, Androgen receptor (Homo sapiens) (UniProt P10275).
T1 sequence (whole entry): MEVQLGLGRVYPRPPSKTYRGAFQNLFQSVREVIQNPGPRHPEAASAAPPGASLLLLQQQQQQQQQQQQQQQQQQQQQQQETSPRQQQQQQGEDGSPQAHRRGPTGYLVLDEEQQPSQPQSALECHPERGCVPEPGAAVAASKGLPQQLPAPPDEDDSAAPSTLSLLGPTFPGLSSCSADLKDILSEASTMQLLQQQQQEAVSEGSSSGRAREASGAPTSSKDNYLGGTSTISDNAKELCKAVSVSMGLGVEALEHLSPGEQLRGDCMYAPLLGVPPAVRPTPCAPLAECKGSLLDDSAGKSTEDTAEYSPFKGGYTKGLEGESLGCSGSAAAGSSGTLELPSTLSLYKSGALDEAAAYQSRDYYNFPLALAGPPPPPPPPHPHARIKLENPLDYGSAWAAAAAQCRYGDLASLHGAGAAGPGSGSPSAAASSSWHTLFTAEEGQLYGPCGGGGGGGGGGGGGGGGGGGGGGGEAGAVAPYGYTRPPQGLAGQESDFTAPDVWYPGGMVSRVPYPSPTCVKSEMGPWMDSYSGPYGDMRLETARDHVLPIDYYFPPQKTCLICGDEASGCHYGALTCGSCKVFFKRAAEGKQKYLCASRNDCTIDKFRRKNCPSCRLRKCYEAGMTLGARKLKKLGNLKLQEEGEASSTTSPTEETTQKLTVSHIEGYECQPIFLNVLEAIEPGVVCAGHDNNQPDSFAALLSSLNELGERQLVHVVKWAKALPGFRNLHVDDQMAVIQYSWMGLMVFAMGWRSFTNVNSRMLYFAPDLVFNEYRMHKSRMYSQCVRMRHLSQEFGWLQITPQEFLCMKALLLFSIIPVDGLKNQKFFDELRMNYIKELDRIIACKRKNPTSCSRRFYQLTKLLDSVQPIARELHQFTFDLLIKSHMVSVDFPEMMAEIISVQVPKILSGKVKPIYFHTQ
The note with it: CV-1.
Description: Relative stimulatory activity compared to 5-alpha-DHT in CV-1 cells expressing androgen receptor

For the compound `CC12CC[C@H]3[C@@H]([C@H](I)CC4CC(=O)CCC43C)[C@@H]1CCC2O` (stereo partly specified), the Biodistribution with Rattus norvegicus [1] was 1.34%; in the data set with Rattus norvegicus [2], 0.94%. In addition, in data set [3], the RSA was 20.
`CC12CCC(=O)CC1C[C@@H](F)[C@@H]1[C@@H]2CCC2(C)[C@H]1CC[C@]2(C)O` (stereo partly specified) came in with an RSA in data set [3] of 418.
Turning to `CC12CC[C@@H]3C4CCC(=O)CC4C[C@@H](I)[C@H]3[C@@H]1CC[C@]2(C)O` (stereo partly specified), the RSA in data set [3] stood at 8.
Same read-out and setting: next, `C[C@]12CC[C@@H]3C4CCC(=O)CC4C[C@@H](F)[C@H]3[C@@H]1CC[C@@H]2O` (stereo partly specified): 44.

Values taken from ChEMBL document CHEMBL1132232, “7alpha-Iodo and 7alpha-fluoro steroids as androgen receptor-mediated imaging agents” (J Med Chem, 1999).
